{"source": "patent US10456465B2", "about": "“Compositions, kits, and methods for the diagnosis prognosis, monitoring, treatment and modulation of post-transplant lymphoproliferative disorders and hypoxia associated angiogenesis disorders using galectin-1” (Dana-Farber Cancer Institute, Inc., priority 2009, dated 2019)", "key": {"KS cells": {"test_system": "KS cells", "experiment": "Gal1 expression and secretion by KS cells (hypoxia/normoxia)", "assay_type": "cell-based, human", "settings": "for IκB-α degradation: hypoxia; for hypoxia-driven Gal1 expression and secretion: hypoxia (1% O2)"}, "mice (Matrigel plugs)": {"test_system": "mice (Matrigel plugs)", "experiment": "In vivo vascularization of Matrigel sponges", "set-up": "species or system mouse", "settings": "lactose 30 mM", "description": "Invasion assays were performed using the BioCoat Angiogenesis system (BD Biosciences) following manufacturer's recommendations. For assessment of in vivo angiogenesis, growth factor-reduced Matrigel (BD Biosciences) was mixed with Gal1 (0.1 or 3 μM) with or without lactose (30 mM). In another set of experiments, serum-free CM from KS cells infected or not with a retroviral vector expressing Gal1 shRNA and cultured under hypoxic or normoxic conditions, were added to unpolymerized Matrigel and injected subcutaneously into the flanks of either wild-type or Lgals1^−/− (B6) mice or nude mice using a cold syringe. Matrigel embedded with buffer alone was used as negative control and a cocktail containing VEGF (50 ng/ml), heparin (50 U/ml) and TNF (2 ng/ml) was used as positive control. After 6 days, Matrigel plugs were collected by surgery, photographed and weighed. Samples were minced and diluted in water to measure hemoglobin content using the Drabkin reagent kit (Sigma). Each sample was normalized to 100 mg of recovered gel and confronted with a standard curve of mouse blood hemoglobin."}, "HUVEC [1]": {"test_system": "HUVEC", "experiment": "HUVEC proliferation ([3H]thymidine incorporation)", "assay_type": "cell-based, human", "settings": "induced by Gal1", "description": "(§1) HUVEC transfected or not with specific siRNA or pre-incubated with signaling pathway inhibitors were exposed to VEGF or Gal1 with or without lactose, sucrose, 8F4F8G7 mAb or control isotype (IgG1κ) or specific antibodies for VEGFR1 (AP-MAB0702; Abcam), VEGFR2 (AF357; R&D), VEGFR3 (AB89501; Abcam) or VEGF (MAB293; R&D). Cells were processed for proliferation, migration, invasion and tube formation assays. Tumor-associated blood vessels were identified by flow cytometry using Alexa Fluor 647-conjugated anti-CD34 antibody (RAM34; eBioscience).\nFor proliferation assays, HUVEC that were transfected or not with specific siRNA and cultured in complete M199 medium were trypsinized, harvested and seeded in 96-well microtiter plates (1×10^3 cells/well). Cells were pre-incubated for 1 hour at 37° C. with lactose, sucrose or signaling pathway inhibitors and then exposed to Gal1. After 24 hours, cells were incubated for an additional 24 hours in the presence of 0.8 μCi [^3H]-thymidine (NEN Dupont). Cells were then harvested and radioactivity was measured in a 1414 Liquid Scintillation Counter (Perkin Elmer)."}, "HUVEC [2]": {"test_system": "HUVEC", "experiment": "HUVEC migration (transwell)", "assay_type": "cell-based, human", "settings": "induced by Gal1", "description": "as §1\n(§2) The formation of capillary-like tubular structures was assessed in Matrigel-coated plates essentially as described in Albini et al. (2001), Cancer Res 61, 8171-8178. In brief, HUVEC (3×10^4 cells/ml) transfected or not with specific siRNA or pre-incubated with signaling pathway inhibitors were seeded on Matrigel with our without Gal1 (0.1 to 3 μM) or VEGF (20 ng/ml) with or without lactose, sucrose, 8F4F8G7 mAb (0.5 μM) or isotype control (IgG1K) or blocking antibodies specific for VEGFR1 (5 μg/ml), VEGFR2 (2 μg/ml), VEGFR3 (10 μg/ml) or VEGF (10 μg/ml). Cells were incubated at 37° C. for periods ranging from 0 to 24 h and were visualized by phase-contrast microscopy. In another set of experiments, conditioned medium from hypoxic or normoxic KS cells infected or not with a retroviral vector containing Gal1 shRNA was assessed on HUVEC transfected or not with GnT5, GCNT1 or scr siRNA (100 nM). Capillary-like tubular structures were scored by counting the number of tubules (closed areas) per well in a phase-contrast microscope (Nikon E-100). For migration assays, HUVEC (4×10^4/well) transfected or not with specific siRNA were resuspended in M199 medium supplemented with 1% FCS. Cells were placed into the top chamber of the insert while the bottom well was filled with Gal1 or VEGF in the absence or presence of lactose, sucrose, 8F4F8G7 mAb or isotype control. After 24 hours, inserts were stained with crystal violet (Sigma) and analyzed in an inverted microscope. For each filter, 4 images were collected and cells were counted with the ImageJ software v1.34 (NIH)."}, "HUVEC [3]": {"test_system": "HUVEC", "experiment": "HUVEC capillary tube formation on Matrigel", "assay_type": "cell-based, human", "settings": "induced by Gal1", "description": "as §1, §2"}, "Gal1": {"molecular_target": "T1, Gal1 (Homo sapiens, UniProt P09382)", "T1 construct": "made in house", "T1 sequence (P09382 whole entry)": "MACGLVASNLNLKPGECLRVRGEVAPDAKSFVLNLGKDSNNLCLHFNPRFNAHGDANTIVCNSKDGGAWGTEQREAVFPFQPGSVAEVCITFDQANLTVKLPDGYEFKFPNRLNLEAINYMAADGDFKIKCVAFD", "experiment": "Binding of 488-Gal1 to HUVEC", "settings": "lactose/sucrose 30 mM, swainsonine 3 μM, benzyl-α-GalNAc 2 mM, mAb 0.5 μM", "description": "For glycophenotyping, ECs were incubated with biotinylated L-PHA, LEL, SNA, MAL II, PNA and HPA (all from Vector). Recombinant Gal1 was purified as described in Ilarregui et al. (2009) Nat Immunol 10, 981-991. For binding assays, ECs were incubated for 1 h at 4° C. with dyLight 488-labeled galectins in the absence or presence of lactose, sucrose, anti-Gal1 or isotype control mAb or following transfection with GnT5, GCNT1 or scrambled siRNA. Cells were analyzed on a FACSAria (BD Biosciences). For segregation, ECs were treated with Gal1 for 1 h, fixed and incubated for 1 h with anti-human VEGFR2 antibody (55B11; Cell Signaling) as described in Ilarregui et al. (2009) Nat Immunol 10, 981-991. Cells were analyzed on a Nikon laser confocal microscope (Eclipse E800).\nDyLight 488-conjugated Gal1 (488-Gal1) was obtained using DyLight labeling kit (Thermo Scientific). Inhibitors of Jak2-STAT3 (AG490; 5 μM), Jnk-SAP (SP600125; 20 μM), p38 (SB202190; 10 μM), HIF-1α (3 μM) and O-glycosylation (benzyl-α-Ga1NAc; 2 mM) were from Calbiochem. Inhibitors of Erk1/2 (U0126; 5 μM), PI(3)K-Akt (Ly294002; 2 μM) and NF-κB (BAY 11-7082; 1 μM), ROS (N-acetyl-cysteine; NAC), N-glycosylation (swainsonine; 3 μM), lactose or sucrose (30 mM) were from Sigma. PNGase F (25 U/μg protein) was from New England Biolabs. Recombinant cytokines including IL-10 (50 ng/ml), IL-17 (5 ng/ml), TGF-β1 (3 ng/ml), IFN-γ (50 ng/ml), VEGF (20 ng/ml), bFGF (10 ng/ml) were from R&D. TNF (20 ng/ml) was from Sigma. Biotinylated lectins, including L-PHA (2 μg/ml), LEL (1 μg/ml), SNA (5 μg/ml), MAL II (10 μg/ml), PNA (10 μg/ml) and HPA (10 μg/ml) were purchased from Vector Labs and incubated in buffer containing 150 mM NaCl, 10 mM HEPES and 1% BSA (Sigma). ON-TARGETplus SMART siRNA pools against GnT5, GCNT1, VEGFR2, NRP-1, VEGF, HIF-1α and scrambled were obtained from Dharmacon. Transfections were performed by Lipofectamine-RNAiMAX (Invitrogen) following manufacturer's directions. Recombinant Gal3 and Gal8 were purified as described in Acosta-Rodriguez et al. (2004) J Immunol 172, 493-502 and Cardenas Delgado et al. (2010) FASEB J [Epub ahead of print]."}}, "data": [{"smiles": "CC(=O)N[C@@H](CS)C(=O)O", "note": "[N-acetyl-cysteine]", "values": [{"measurement": "IκB-α degradation", "setting": "KS cells; KS cells", "result": "prevented"}, {"measurement": "hypoxia-driven Gal1 expression and secretion", "setting": "KS cells; KS cells", "result": "strongly inhibited"}]}, {"smiles": "OC[C@H]1O[C@@H](O[C@H]2[C@H](O)[C@@H](O)C(O)O[C@@H]2CO)[C@H](O)[C@@H](O)[C@H]1O", "note": "(some centres unmarked) [lactose, reference compound]", "values": [{"measurement": "effect on Gal1-induced vascularization of Matrigel sponges", "setting": "mice (Matrigel plugs)", "result": "specifically inhibited"}, {"measurement": "effect on Gal1-induced EC proliferation", "setting": "HUVEC [1]", "result": "completely prevented"}, {"measurement": "effect on Gal1-induced EC migration", "setting": "HUVEC [2]", "result": "completely prevented"}, {"measurement": "effect on Gal1-induced capillary tube formation", "setting": "HUVEC [3]", "result": "completely prevented"}, {"measurement": "effect on binding of Gal1 to ECs", "setting": "Gal1", "result": "prevented"}]}, {"smiles": "[Cl-].[Cl-].[Co+2]", "note": "[CoCl2]", "values": [{"measurement": "Gal1 expression", "setting": "KS cells", "result": "no effect"}]}, {"smiles": "OO", "note": "[H2O2]", "values": [{"measurement": "secretion of Gal1", "setting": "KS cells; KS cells, exogenous administration", "result": "stimulated"}]}, {"smiles": "Cc1ccc(S(=O)(=O)/C=C/C#N)cc1", "note": "[BAY-117802]", "values": [{"measurement": "IκB-α degradation", "setting": "KS cells; KS cells", "result": "prevented"}, {"measurement": "hypoxia-driven Gal1 expression and secretion", "setting": "KS cells; KS cells", "result": "completely eliminated"}]}, {"smiles": "CC(=O)N[C@H]1[C@@H](OCc2ccccc2)O[C@H](CO)[C@H](O)[C@@H]1O", "note": "[benzyl-α-Ga1NAc]", "values": [{"measurement": "effect on binding of Gal1 to ECs", "setting": "Gal1", "result": "only partially inhibitory"}]}, {"smiles": "OC[C@H]1O[C@@](CO)(O[C@H]2O[C@H](CO)[C@@H](O)[C@H](O)[C@H]2O)[C@@H](O)[C@@H]1O", "note": "[sucrose]", "values": [{"measurement": "effect on binding of Gal1 to ECs", "setting": "Gal1", "result": "not"}]}, {"smiles": "O[C@H]1[C@H]2[C@H](O)CCCN2C[C@H]1O", "note": "[swainsonine]", "values": [{"measurement": "effect on binding of Gal1 to ECs", "setting": "Gal1", "result": "almost completely abrogated"}]}]}
